ChEMBL document CHEMBL3885861, “Open TG-GATES”

Species on record: Rattus norvegicus
Assay: Open TG-GATES - Regimen: Single
Format: toxicity, organism-based, Sprague-Dawley
Design: regimen Single, gender Male, age 6 weeks
Conditions: in vivo, po, route gavage; for APTT / Bas / Eos / Fbg / Hb / Ht / Lym / MCH / MCHC / MCV / Mono / Neu / PT / Plat / RBC / Ret / WBC: tissue Blood; for KIDNEY_L / KIDNEY_R / KIDNEY_TOTAL: tissue Kidney; for LIVER: tissue Liver; for A/G / ALP / ALT / AST / BUN / CRE / Ca / Cl / DBIL / GLC / IP / K / LDH / Na / PL / RALB / TBIL / TC / TG / TP / gamma-GTP: tissue Plasma
[1] = 600 mg/kg, 3 h, dose level Middle
[2] = 600 mg/kg, 6 h, dose level Middle
[3] = 600 mg/kg, 9 h, dose level Middle
[4] = 600 mg/kg, 24 h, dose level Middle
[5] = 2000 mg/kg, 3 h, dose level High
[6] = 2000 mg/kg, 6 h, dose level High
[7] = 2000 mg/kg, 9 h, dose level High
[8] = 2000 mg/kg, 24 h, dose level High

NNC(=O)c1ccncc1 [ISONIAZID]
TERMINAL_BW [1]: 221.5 g
APTT [1]: 19.8 s
Bas [1]: 0%
Eos [1]: 1%
Fbg [1]: 231 mg/dL
Hb [1]: 13.7 g/dL
Ht [1]: 37.8%
Lym [1]: 72.6%
MCH [1]: 22 pg
MCHC [1]: 36.2%
MCV [1]: 60.8 fL
Mono [1]: 2.4%
Neu [1]: 23.2%
PT [1]: 12.2 s
Plat [1]: 125.7 x10_4/uL
RBC [1]: 622.4 x10_4/ul
Ret [1]: 7.4%
WBC [1]: 67.3 x10_2/uL
KIDNEY_L [1]: 0.9 g
KIDNEY_R [1]: 0.9 g
KIDNEY_TOTAL [1]: 1.9 g
LIVER [1]: 9.6 g
A/G [1]: 1.7
ALP [1]: 950 IU/L
ALT [1]: 39.6 IU/L
AST [1]: 73.6 IU/L
BUN [1]: 9 mg/dL
CRE [1]: 0.4 mg/dL
Ca [1]: 10.3 mg/dL
Cl [1]: 104 meq/L
DBIL [1]: 0.064 mg/dL
GLC [1]: 197.6 mg/dL
IP [1]: 10 mg/dL
K [1]: 3.7 meq/L
LDH [1]: 177.2 IU/L
Na [1]: 141.4 meq/L
PL [1]: 134.8 mg/dL
RALB [1]: 3.6 g/dL
TBIL [1]: 0.1 mg/dL
TC [1]: 78.2 mg/dL
TG [1]: 49.6 mg/dL
TP [1]: 5.7 g/dL
gamma-GTP [1]: 1 IU/L
TERMINAL_BW [2]: 219.2 g
APTT [2]: 18.4 s
Bas [2]: 0%
Eos [2]: 0.8%
Fbg [2]: 223.4 mg/dL
Hb [2]: 13.6 g/dL
Ht [2]: 37.9%
Lym [2]: 78.8%
MCH [2]: 22 pg
MCHC [2]: 36%
MCV [2]: 61.3 fL
Mono [2]: 1.8%
Neu [2]: 17.6%
PT [2]: 12.2 s
Plat [2]: 133.3 x10_4/uL
RBC [2]: 619 x10_4/ul
Ret [2]: 7.6%
WBC [2]: 75.7 x10_2/uL
KIDNEY_L [2]: 1 g
KIDNEY_R [2]: 1 g
KIDNEY_TOTAL [2]: 1.9 g
LIVER [2]: 9.6 g
A/G [2]: 1.6
ALP [2]: 838.6 IU/L
ALT [2]: 27.6 IU/L
AST [2]: 52.2 IU/L
BUN [2]: 9.4 mg/dL
CRE [2]: 0.4 mg/dL
Ca [2]: 10.3 mg/dL
Cl [2]: 104.6 meq/L
DBIL [2]: 0.066 mg/dL
GLC [2]: 210 mg/dL
IP [2]: 9.3 mg/dL
K [2]: 3.6 meq/L
LDH [2]: 202.8 IU/L
Na [2]: 142.8 meq/L
PL [2]: 142.2 mg/dL
RALB [2]: 3.5 g/dL
TBIL [2]: 0.1 mg/dL
TC [2]: 71 mg/dL
TG [2]: 90.4 mg/dL
TP [2]: 5.8 g/dL
gamma-GTP [2]: 1 IU/L
TERMINAL_BW [3]: 219.9 g
APTT [3]: 17.5 s
Bas [3]: 0%
Eos [3]: 0.8%
Fbg [3]: 222.8 mg/dL
Hb [3]: 13.5 g/dL
Ht [3]: 37.4%
Lym [3]: 70.6%
MCH [3]: 21.9 pg
MCHC [3]: 36.1%
MCV [3]: 60.6 fL
Mono [3]: 1.6%
Neu [3]: 26%
PT [3]: 12.3 s
Plat [3]: 116 x10_4/uL
RBC [3]: 616.6 x10_4/ul
Ret [3]: 7.1%
WBC [3]: 71.5 x10_2/uL
KIDNEY_L [3]: 1 g
KIDNEY_R [3]: 1 g
KIDNEY_TOTAL [3]: 2 g
LIVER [3]: 8.8 g
A/G [3]: 1.5
ALP [3]: 752.2 IU/L
ALT [3]: 23.2 IU/L
AST [3]: 44.6 IU/L
BUN [3]: 7.8 mg/dL
CRE [3]: 0.4 mg/dL
Ca [3]: 10.3 mg/dL
Cl [3]: 105 meq/L
DBIL [3]: 0.066 mg/dL
GLC [3]: 200.6 mg/dL
IP [3]: 9 mg/dL
K [3]: 3.8 meq/L
LDH [3]: 203.6 IU/L
Na [3]: 142.6 meq/L
PL [3]: 152.8 mg/dL
RALB [3]: 3.4 g/dL
TBIL [3]: 0.1 mg/dL
TC [3]: 78.2 mg/dL
TG [3]: 74.6 mg/dL
TP [3]: 5.7 g/dL
gamma-GTP [3]: 1 IU/L
TERMINAL_BW [4]: 215.6 g
APTT [4]: 19.7 s
Bas [4]: 0.4%
Eos [4]: 0.8%
Fbg [4]: 218.6 mg/dL
Hb [4]: 14.5 g/dL
Ht [4]: 39.6%
Lym [4]: 86.4%
MCH [4]: 22.4 pg
MCHC [4]: 36.7%
MCV [4]: 61 fL
Mono [4]: 2.4%
Neu [4]: 8.8%
PT [4]: 12.9 s
Plat [4]: 139.5 x10_4/uL
RBC [4]: 649.2 x10_4/ul
Ret [4]: 3.7%
WBC [4]: 85.9 x10_2/uL
KIDNEY_L [4]: 1 g
KIDNEY_R [4]: 1 g
KIDNEY_TOTAL [4]: 2.1 g
LIVER [4]: 9.8 g
A/G [4]: 1.7
ALP [4]: 817.6 IU/L
ALT [4]: 15.2 IU/L
AST [4]: 32.2 IU/L
BUN [4]: 17.8 mg/dL
CRE [4]: 0.4 mg/dL
Ca [4]: 10.6 mg/dL
Cl [4]: 104.4 meq/L
DBIL [4]: 0.06 mg/dL
GLC [4]: 189.2 mg/dL
IP [4]: 8.9 mg/dL
K [4]: 3.9 meq/L
LDH [4]: 202.4 IU/L
Na [4]: 143.4 meq/L
PL [4]: 123.2 mg/dL
RALB [4]: 3.6 g/dL
TBIL [4]: 0.1 mg/dL
TC [4]: 58.6 mg/dL
TG [4]: 69.6 mg/dL
TP [4]: 5.7 g/dL
gamma-GTP [4]: 1 IU/L
TERMINAL_BW [5]: 221 g
APTT [5]: 20.8 s
Bas [5]: 0%
Eos [5]: 1.2%
Fbg [5]: 218.2 mg/dL
Hb [5]: 13.8 g/dL
Ht [5]: 38.4%
Lym [5]: 73.8%
MCH [5]: 22.2 pg
MCHC [5]: 36%
MCV [5]: 61.7 fL
Mono [5]: 2%
Neu [5]: 22.2%
PT [5]: 12.3 s
Plat [5]: 117.2 x10_4/uL
RBC [5]: 621.8 x10_4/ul
Ret [5]: 7.9%
WBC [5]: 51.3 x10_2/uL
KIDNEY_L [5]: 1 g
KIDNEY_R [5]: 1 g
KIDNEY_TOTAL [5]: 1.9 g
LIVER [5]: 9.8 g
A/G [5]: 1.7
ALP [5]: 760.4 IU/L
ALT [5]: 31.4 IU/L
AST [5]: 66.4 IU/L
BUN [5]: 8.8 mg/dL
CRE [5]: 0.4 mg/dL
Ca [5]: 10.4 mg/dL
Cl [5]: 102.4 meq/L
DBIL [5]: 0.062 mg/dL
GLC [5]: 221.8 mg/dL
IP [5]: 10.2 mg/dL
K [5]: 4 meq/L
LDH [5]: 231.8 IU/L
Na [5]: 141.2 meq/L
PL [5]: 136 mg/dL
RALB [5]: 3.6 g/dL
TBIL [5]: 0.1 mg/dL
TC [5]: 72.8 mg/dL
TG [5]: 58.8 mg/dL
TP [5]: 5.7 g/dL
gamma-GTP [5]: 0.8 IU/L
TERMINAL_BW [6]: 217.4 g
APTT [6]: 19.1 s
Bas [6]: 0%
Eos [6]: 0.8%
Fbg [6]: 231 mg/dL
Hb [6]: 13.7 g/dL
Ht [6]: 38.1%
Lym [6]: 68.4%
MCH [6]: 22 pg
MCHC [6]: 36%
MCV [6]: 61 fL
Mono [6]: 1.6%
Neu [6]: 28.2%
PT [6]: 12.2 s
Plat [6]: 128.8 x10_4/uL
RBC [6]: 625.4 x10_4/ul
Ret [6]: 8.1%
WBC [6]: 60.7 x10_2/uL
KIDNEY_L [6]: 1 g
KIDNEY_R [6]: 1 g
KIDNEY_TOTAL [6]: 1.9 g
LIVER [6]: 9.6 g
A/G [6]: 1.5
ALP [6]: 774.2 IU/L
ALT [6]: 27.8 IU/L
AST [6]: 43.8 IU/L
BUN [6]: 8.8 mg/dL
CRE [6]: 0.5 mg/dL
Ca [6]: 10.4 mg/dL
Cl [6]: 104.2 meq/L
DBIL [6]: 0.062 mg/dL
GLC [6]: 222.4 mg/dL
IP [6]: 9.2 mg/dL
K [6]: 3.7 meq/L
LDH [6]: 185.6 IU/L
Na [6]: 141.8 meq/L
PL [6]: 151.2 mg/dL
RALB [6]: 3.5 g/dL
TBIL [6]: 0.1 mg/dL
TC [6]: 78.2 mg/dL
TG [6]: 47.8 mg/dL
TP [6]: 5.9 g/dL
gamma-GTP [6]: 1 IU/L
TERMINAL_BW [7]: 217 g
APTT [7]: 18.6 s
Bas [7]: 0.2%
Eos [7]: 1%
Fbg [7]: 230 mg/dL
Hb [7]: 14 g/dL
Ht [7]: 38.5%
Lym [7]: 70.4%
MCH [7]: 21.7 pg
MCHC [7]: 36.3%
MCV [7]: 59.8 fL
Mono [7]: 1.8%
Neu [7]: 26%
PT [7]: 12.5 s
Plat [7]: 131.2 x10_4/uL
RBC [7]: 644 x10_4/ul
Ret [7]: 7%
WBC [7]: 61.3 x10_2/uL
KIDNEY_L [7]: 1 g
KIDNEY_R [7]: 1 g
KIDNEY_TOTAL [7]: 2.1 g
LIVER [7]: 9 g
A/G [7]: 1.7
ALP [7]: 823.6 IU/L
ALT [7]: 23.8 IU/L
AST [7]: 40.8 IU/L
BUN [7]: 8.8 mg/dL
CRE [7]: 0.4 mg/dL
Ca [7]: 10.5 mg/dL
Cl [7]: 104 meq/L
DBIL [7]: 0.066 mg/dL
GLC [7]: 211 mg/dL
IP [7]: 9.2 mg/dL
K [7]: 3.6 meq/L
LDH [7]: 195.4 IU/L
Na [7]: 142.4 meq/L
PL [7]: 151.8 mg/dL
RALB [7]: 3.7 g/dL
TBIL [7]: 0.1 mg/dL
TC [7]: 76.2 mg/dL
TG [7]: 78 mg/dL
TP [7]: 5.9 g/dL
gamma-GTP [7]: 1 IU/L
TERMINAL_BW [8]: 212.5 g
APTT [8]: 18.8 s
Bas [8]: 0.2%
Eos [8]: 0.8%
Fbg [8]: 196 mg/dL
Hb [8]: 14.7 g/dL
Ht [8]: 40.4%
Lym [8]: 75.4%
MCH [8]: 22.4 pg
MCHC [8]: 36.4%
MCV [8]: 61.6 fL
Mono [8]: 3.4%
Neu [8]: 19.6%
PT [8]: 14.4 s
Plat [8]: 152.8 x10_4/uL
RBC [8]: 656.4 x10_4/ul
Ret [8]: 2.8%
WBC [8]: 41.4 x10_2/uL
KIDNEY_L [8]: 1.1 g
KIDNEY_R [8]: 1.1 g
KIDNEY_TOTAL [8]: 2.2 g
LIVER [8]: 9.5 g
A/G [8]: 1.8
ALP [8]: 761.4 IU/L
ALT [8]: 12 IU/L
AST [8]: 25.8 IU/L
BUN [8]: 14 mg/dL
CRE [8]: 0.5 mg/dL
Ca [8]: 10.1 mg/dL
Cl [8]: 103.8 meq/L
DBIL [8]: 0.06 mg/dL
GLC [8]: 205.4 mg/dL
IP [8]: 8.4 mg/dL
K [8]: 3.9 meq/L
LDH [8]: 203.8 IU/L
Na [8]: 143 meq/L
PL [8]: 114.2 mg/dL
RALB [8]: 3.5 g/dL
TBIL [8]: 0.1 mg/dL
TC [8]: 47 mg/dL
TG [8]: 90 mg/dL
TP [8]: 5.5 g/dL
gamma-GTP [8]: 0.8 IU/L
